Source: ChEMBL document CHEMBL1201861, “Genomics of Drug Sensitity in Cancer screening data, Wellcome Trust Sanger Institute”

Experiments:
Assay in all cases: cells
Type in all cases: functional, cell-based, Homo sapiens
[1] = test system: ChaGo-K-1; conditions: Homo sapiens, ChaGo-K-1;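 note: growth inhibition of ChaGo-K-1 cells, read out with a cell viability assay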
Description: SANGER: Inhibition of human ChaGo-K-1 cell growth in a cell viability assay.

[2] = test system: DMS-273; conditions: Homo sapiens, DMS-273
Description: SANGER: Inhibition of human DMS-273 cell growth in a cell viability assay.

[3] = test system: HCC1569; conditions: Homo sapiens, HCC1569;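 note: growth inhibition of human HCC1569 cells, read out with a cell viability assay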
Description: SANGER: Inhibition of human HCC1569 cell growth in a cell viability assay.

[4] = test system: NCI-H630; conditions: Homo sapiens, NCI-H630;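 note: growth inhibition of NCI-H630 cells, read out with a cell viability assay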
Description: SANGER: Inhibition of human NCI-H630 cell growth in a cell viability assay.

[5] = test system: CWR22R; conditions: Homo sapiens, 22Rv1;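 note: growth inhibition of 22Rv1 cells, read out with a cell viability assay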
Description: SANGER: Inhibition of human 22RV1 cell growth in a cell viability assay.

[6] = test system: Panc1005; conditions: Homo sapiens, Panc1005;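 note: growth inhibition of human PANC-10-05 cells, measured by a cell viability assay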
Description: SANGER: Inhibition of human PANC-10-05 cell growth in a cell viability assay.

[7] = test system: SW1417; conditions: Homo sapiens, SW1417;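 note: growth inhibition of human SW1417 cells, read out with a cell viability assay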
Description: SANGER: Inhibition of human SW1417 cell growth in a cell viability assay.

[8] = test system: MDA-MB-175-VII; conditions: Homo sapiens, MDA-MB-175-VII
[9] = test system: NCI-H520; conditions: Homo sapiens, NCI-H520;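 note: growth inhibition of NCI-H520 cells, measured by a cell viability assay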
Description: SANGER: Inhibition of human NCI-H520 cell growth in a cell viability assay.

[10] = test system: HCT-116; conditions: Homo sapiens, HCT-116
Description: SANGER: Inhibition of human HCT-116 cell growth in a cell viability assay.

[11] = test system: MKN-1; conditions: Homo sapiens, MKN-1;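 note: growth inhibition of human MKN1 cells, read out by a cell viability measurement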
Description: SANGER: Inhibition of human MKN1 cell growth in a cell viability assay.

[12] = test system: KYSE-70 cell line; conditions: Homo sapiens, KYSE-70;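 note: cell viability assay read-out, with IC50 expressing suppression of KYSE-70 cell growth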
Description: SANGER: Inhibition of human KYSE-70 cell growth in a cell viability assay.

[13] = test system: DBTRG-05MG; conditions: Homo sapiens, DBTRG-05MG;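 note: cell viability assay measuring growth inhibition of human DBTRG-05MG cells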
Description: SANGER: Inhibition of human DBTRG-05MG cell growth in a cell viability assay.

[14] = test system: YH-13; conditions: Homo sapiens, YH-13;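 note: cell viability readout of growth suppression in the human YH-13 cell line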
Description: SANGER: Inhibition of human YH-13 cell growth in a cell viability assay.

[15] = test system: OE19; conditions: Homo sapiens, OE19;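 note: growth inhibition of OE19 cells, measured through a cell viability read-out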
Description: SANGER: Inhibition of human OE19 cell growth in a cell viability assay.

[16] = test system: NCI-H28; conditions: Homo sapiens, NCI-H28;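 note: growth inhibition of human NCI-H28 cells, read out as cell viability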
Description: SANGER: Inhibition of human NCI-H28 cell growth in a cell viability assay.

[17] = test system: MIA PaCa-2; conditions: Homo sapiens, MIA PaCa-2;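 note: growth inhibition of MIA PaCa-2 cells, read out with a cell viability assay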
Description: SANGER: Inhibition of human MIA-PaCa-2 cell growth in a cell viability assay.

[18] = test system: RPMI-2650; conditions: Homo sapiens, RPMI-2650
Description: SANGER: Inhibition of human RPMI-2650 cell growth in a cell viability assay.

[19] = test system: C32; conditions: Homo sapiens, C32;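 note: cell viability assay, with IC50 reflecting inhibition of C32 cell growth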
Description: SANGER: Inhibition of human C32 cell growth in a cell viability assay.

[20] = test system: D-566MG; conditions: Homo sapiens, D-566MG
[21] = test system: SBC-5; conditions: Homo sapiens, SBC-5;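 note: cell viability assay read-out, IC50 is the concentration that inhibits growth of the cells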
Description: SANGER: Inhibition of human SBC-5 cell growth in a cell viability assay.

[22] = test system: CAL-51; conditions: Homo sapiens, CAL-51;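 note: human CAL-51 cell line, growth inhibition read out via a cell viability assay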
Description: SANGER: Inhibition of human CAL-51 cell growth in a cell viability assay.

[23] = test system: DK-MG; conditions: Homo sapiens, DK-MG;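 note: growth inhibition of DK-MG cells, read out with a cell viability assay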
Description: SANGER: Inhibition of human DK-MG cell growth in a cell viability assay.

[24] = test system: M14; conditions: Homo sapiens, M14;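 note: growth inhibition of M14 cells, read out with a cell viability assay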
Description: SANGER: Inhibition of human M14 cell growth in a cell viability assay.

[25] = test system: EFO-21; conditions: Homo sapiens, EFO-21;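 note: growth inhibition of EFO-21 cells measured with a viability assay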
Description: SANGER: Inhibition of human EFO-21 cell growth in a cell viability assay.

[26] = test system: ME-180; conditions: Homo sapiens, ME-180;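 note: cell viability assay measuring growth inhibition of ME-180 cells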
Description: SANGER: Inhibition of human ME-180 cell growth in a cell viability assay.

[27] = test system: COLO-679; conditions: Homo sapiens, COLO-679
Description: SANGER: Inhibition of human COLO-679 cell growth in a cell viability assay.

[28] = test system: PC-14; conditions: Homo sapiens, PC-14;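 note: cell viability assay measuring inhibition of PC-14 cell growth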
Description: SANGER: Inhibition of human PC-14 cell growth in a cell viability assay.

[29] = test system: C3A; conditions: Homo sapiens, C3A;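 note: growth inhibition of C3A human cells, quantified with a cell viability readout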
Description: SANGER: Inhibition of human C3A cell growth in a cell viability assay.

[30] = test system: BHY; conditions: Homo sapiens, BHY;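 note: cell growth inhibition read out by a viability assay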
Description: SANGER: Inhibition of human BHY cell growth in a cell viability assay.

[31] = test system: Calu-3; conditions: Homo sapiens, Calu-3;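 note: growth inhibition of human Calu-3 cells, determined with a cell viability assay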
Description: SANGER: Inhibition of human Calu-3 cell growth in a cell viability assay.

[32] = test system: VMRC-RCZ; conditions: Homo sapiens, VMRC-RCZ;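 note: growth inhibition measured with a cell viability assay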
Description: SANGER: Inhibition of human VMRC-RCZ cell growth in a cell viability assay.

[33] = test system: COLO-680N; conditions: Homo sapiens, COLO-680N;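 note: cell viability assay used to measure inhibition of COLO-680N cell growth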
Description: SANGER: Inhibition of human COLO-680N cell growth in a cell viability assay.

[34] = test system: CAL-72; conditions: Homo sapiens, CAL-72;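 note: cell viability assay measuring inhibition of proliferation in the CAL-72 cell line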
Description: SANGER: Inhibition of human CAL-72 cell growth in a cell viability assay.

[35] = test system: CFPAC-1; conditions: Homo sapiens, CFPAC-1;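 note: cell viability readout used to gauge suppression of CFPAC-1 cell proliferation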
Description: SANGER: Inhibition of human CFPAC-1 cell growth in a cell viability assay.

[36] = test system: OVCAR-3; conditions: Homo sapiens, OVCAR-3;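 note: growth inhibition of human OVCAR-3 cells, determined by a cell viability assay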
Description: SANGER: Inhibition of human OVCAR-3 cell growth in a cell viability assay.

[37] = test system: NCI-H2291; conditions: Homo sapiens, NCI-H2291
Description: SANGER: Inhibition of human NCI-H2291 cell growth in a cell viability assay.

[38] = test system: NCI-H1437; conditions: Homo sapiens, NCI-H1437;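 note: growth inhibition of human NCI-H1437 cells, read out by a cell viability assay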
Description: SANGER: Inhibition of human NCI-H1437 cell growth in a cell viability assay.

Compound | IC50 [1] [µM] | IC50 [2] [µM] | IC50 [3] [µM] | IC50 [4] [µM] | IC50 [5] [µM] | IC50 [6] [µM] | IC50 [7] [µM] | IC50 [8] [µM] | IC50 [9] [µM] | IC50 [10] [µM] | IC50 [11] [µM] | IC50 [12] [µM] | IC50 [13] [µM] | IC50 [14] [µM] | IC50 [15] [µM] | IC50 [16] [µM] | IC50 [17] [µM] | IC50 [18] [µM] | IC50 [19] [µM] | IC50 [20] [µM] | also measured
CC(C)CCN1c2nc(Nc3cc(F)c(O)c(F)c3)ncc2N(C)C(=O)C1C (centres undefined) | > 5 | > 5 | > 5 | > 5 | > 5 | > 5 | > 5 | > 5 | > 5 | > 5 | 3.21 | > 5 | > 5 | > 5 | > 5 | > 5 | 4.36 | > 5 | 3.97 | 2.91 | IC50 [21]: > 5 µM; IC50 [22]: 4.87 µM; IC50 [23]: > 5 µM; IC50 [24]: > 5 µM; IC50 [25]: > 5 µM; IC50 [26]: 2.78 µM; IC50 [27]: > 5 µM; IC50 [28]: > 5 µM; IC50 [29]: > 5 µM; IC50 [30]: > 5 µM; IC50 [31]: > 5 µM; IC50 [32]: > 5 µM; IC50 [33]: > 5 µM; IC50 [34]: > 5 µM; IC50 [35]: > 5 µM; IC50 [36]: > 5 µM; IC50 [37]: > 5 µM; IC50 [38]: 4.93 µM
COc1cc2c(Nc3ccc(NC(=O)c4ccccc4)cc3)ncnc2cc1OCCCN1CCOCC1 | > 4 | > 4 | > 4 | > 4 | > 4 | > 4 | > 4 | > 4 | > 4 | 1.81 | > 4 | > 4 | > 4 | > 4 | > 4 | > 4 | 3.91 | > 4 | 3.83 | 1.79 | IC50 [21]: > 4 µM; IC50 [22]: 1.84 µM; IC50 [23]: > 4 µM; IC50 [24]: > 4 µM; IC50 [25]: 3.11 µM; IC50 [26]: > 4 µM; IC50 [27]: > 4 µM; IC50 [28]: > 4 µM; IC50 [29]: > 4 µM; IC50 [30]: > 4 µM; IC50 [31]: > 4 µM; IC50 [32]: > 4 µM; IC50 [33]: > 4 µM; IC50 [34]: > 4 µM; IC50 [35]: > 4 µM; IC50 [36]: > 4 µM; IC50 [37]: > 4 µM; IC50 [38]: > 4 µM
CS(=O)(=O)c1ccc(C(=O)Nc2ccc(Cl)c(-c3ccccn3)c2)c(Cl)c1 [VISMODEGIB] | > 10 | > 10 | > 10 | > 10 | > 10 | > 10 | > 10 | > 10 | > 10 | > 10 | > 10 | > 10 | > 10 | > 10 | > 10 | > 10 | > 10 | > 10 | > 10 | > 10 | IC50 [21]: > 10 µM; IC50 [22]: > 10 µM; IC50 [23]: > 10 µM; IC50 [24]: > 10 µM; IC50 [25]: > 10 µM; IC50 [26]: > 10 µM; IC50 [27]: > 10 µM; IC50 [28]: > 10 µM; IC50 [29]: > 10 µM; IC50 [30]: > 10 µM; IC50 [31]: > 10 µM; IC50 [32]: > 10 µM; IC50 [33]: > 10 µM; IC50 [34]: > 10 µM; IC50 [35]: > 10 µM; IC50 [36]: > 10 µM; IC50 [37]: > 10 µM; IC50 [38]: > 10 µM
